Laboratory results: patent EP4796530A1 (Biocells (Beijing) Biotech Co., Ltd., priority 2023, dated 2025)

Experiments:
[1] = Mouse pharmacokinetics after intravenous administration (plasma and brain, LC-MS); assay type: in vivo; conditions: C57 mice, intravenous 5 mg/kg; for concentration at 120 min: brain after cardiac perfusion, read-out: brain drug concentration at 120 min; for half-life / AUC: plasma; for AUC: read-out: area under the curve (AUC) from 1 to 120 min
Procedure: C57 mice were administered intravenously, at a dosage concentration of 5 mg/kg in each group. Retro-orbital blood collection was performed on the mice at 1 min, 30 min, 1 h, and 2 h post-dosing. The collected blood was centrifuged at 3000 rpm for 10 min at 4 °C to obtain plasma. Acetonitrile was added at a 1:3 volume ratio of plasma: acetonitrile to precipitate proteins. After centrifugation, the supernatant was collected and filtered. The concentration of the compound was detected using LC-MS (Agilent 1260-G6125, SIM mode). In addition, 2 h after drug injection, the mice were subjected to cardiac perfusion and then their brains were harvested. Following tissue homogenization and centrifugation, the supernatant was collected. Acetonitrile was added at a 1:3 volume ratio of supernatant: acetonitrile to precipitate proteins. After centrifugation, the supernatant was collected and filtered. The concentration of the compound was detected using LC-MS (Agilent 1260-G6125, SIM mode).
(§1) Experimental groups: a vehicle control group, and a dosing group.

[2] = Rat plasma pharmacokinetics after intravenous administration (LC-MS); assay type: in vivo; conditions: SD rats, intravenous 2.5 mg/kg
Procedure: SD rats were administered intravenously, at a dosage concentration of 2.5 mg/kg in each group. Blood was collected at the time points of 1 min, 30 min, 1 h, 2 h, 4 h, 6 h, and 24 h. The collected blood was centrifuged at 3000 rpm for 10 min at 4 °C to obtain plasma. Acetonitrile was added at a 1:3 volume ratio of plasma: acetonitrile to precipitate proteins. After centrifugation, the supernatant was collected and filtered. The concentration of the compound was detected using LC-MS (Agilent 1260-G6125, SIM mode).
as §1

[3] = biological target: T1, NLRP3 (Homo sapiens, UniProt Q96P20); assay: Inhibition curves (IC50) of canonical NLRP3 activation (LPS+Nig) in THP-1 cells, IL-1β release; assay type: cell-based; parameters: host or cells: THP-1 human acute monocytic leukemia cell line, PMA-differentiated; conditions: THP-1 cell LPS+Nig activation model
T1 sequence (Q96P20 whole entry): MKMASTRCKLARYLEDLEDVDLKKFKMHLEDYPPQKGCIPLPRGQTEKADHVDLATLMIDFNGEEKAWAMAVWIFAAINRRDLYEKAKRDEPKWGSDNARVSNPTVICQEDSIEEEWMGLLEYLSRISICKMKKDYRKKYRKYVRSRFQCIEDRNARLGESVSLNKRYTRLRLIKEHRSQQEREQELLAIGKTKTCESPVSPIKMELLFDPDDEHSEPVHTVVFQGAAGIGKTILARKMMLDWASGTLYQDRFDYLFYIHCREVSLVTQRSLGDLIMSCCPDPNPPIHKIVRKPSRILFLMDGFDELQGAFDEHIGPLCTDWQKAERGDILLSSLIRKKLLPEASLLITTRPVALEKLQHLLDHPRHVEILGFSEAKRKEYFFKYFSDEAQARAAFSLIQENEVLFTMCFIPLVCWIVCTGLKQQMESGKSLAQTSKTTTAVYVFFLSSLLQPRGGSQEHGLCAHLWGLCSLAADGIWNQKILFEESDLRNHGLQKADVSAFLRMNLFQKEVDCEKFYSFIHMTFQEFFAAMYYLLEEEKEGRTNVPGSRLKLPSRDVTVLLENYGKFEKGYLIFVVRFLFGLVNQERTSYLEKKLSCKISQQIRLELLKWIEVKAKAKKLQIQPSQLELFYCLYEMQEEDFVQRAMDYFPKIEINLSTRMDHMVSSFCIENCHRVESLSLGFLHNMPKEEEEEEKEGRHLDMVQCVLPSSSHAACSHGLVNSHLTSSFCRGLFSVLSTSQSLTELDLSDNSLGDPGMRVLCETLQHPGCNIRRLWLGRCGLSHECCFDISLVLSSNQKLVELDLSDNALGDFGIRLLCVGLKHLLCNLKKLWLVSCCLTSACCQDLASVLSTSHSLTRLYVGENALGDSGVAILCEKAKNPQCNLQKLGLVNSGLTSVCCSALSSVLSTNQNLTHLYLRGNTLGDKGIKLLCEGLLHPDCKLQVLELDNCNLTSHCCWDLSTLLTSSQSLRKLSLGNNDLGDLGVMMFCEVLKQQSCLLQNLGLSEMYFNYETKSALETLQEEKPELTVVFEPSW
Procedure: Nig was purchased from Shanghai Yuanye Bio-Technology Co., Ltd., Cat. No.: S45490.
The cells were incubated overnight.
(§2) Therefore, the relative change in the amount of IL-1β release may directly reflect NLRP3 inhibitory effect. The inhibitory effect of the compounds varies with different concentrations, and based on this, an inhibition curve can be constructed, and the inhibitory effects of the compounds were assessed by IC50.

[4] = biological target: T2, NLRP3 (Mus musculus, UniProt Q8R4B8); assay: Inhibition curves (IC50) of canonical NLRP3 activation in J774A.1 cells, IL-1β release; assay type: cell-based; parameters: The mouse macrophage cell line J774A.1 was used, and LPS was used as the first signal; host or cells: J774A.1 mouse monocyte-macrophage cell line; conditions: J774A.1 cell LPS+Nig activation model
T2 sequence (Q8R4B8 whole entry): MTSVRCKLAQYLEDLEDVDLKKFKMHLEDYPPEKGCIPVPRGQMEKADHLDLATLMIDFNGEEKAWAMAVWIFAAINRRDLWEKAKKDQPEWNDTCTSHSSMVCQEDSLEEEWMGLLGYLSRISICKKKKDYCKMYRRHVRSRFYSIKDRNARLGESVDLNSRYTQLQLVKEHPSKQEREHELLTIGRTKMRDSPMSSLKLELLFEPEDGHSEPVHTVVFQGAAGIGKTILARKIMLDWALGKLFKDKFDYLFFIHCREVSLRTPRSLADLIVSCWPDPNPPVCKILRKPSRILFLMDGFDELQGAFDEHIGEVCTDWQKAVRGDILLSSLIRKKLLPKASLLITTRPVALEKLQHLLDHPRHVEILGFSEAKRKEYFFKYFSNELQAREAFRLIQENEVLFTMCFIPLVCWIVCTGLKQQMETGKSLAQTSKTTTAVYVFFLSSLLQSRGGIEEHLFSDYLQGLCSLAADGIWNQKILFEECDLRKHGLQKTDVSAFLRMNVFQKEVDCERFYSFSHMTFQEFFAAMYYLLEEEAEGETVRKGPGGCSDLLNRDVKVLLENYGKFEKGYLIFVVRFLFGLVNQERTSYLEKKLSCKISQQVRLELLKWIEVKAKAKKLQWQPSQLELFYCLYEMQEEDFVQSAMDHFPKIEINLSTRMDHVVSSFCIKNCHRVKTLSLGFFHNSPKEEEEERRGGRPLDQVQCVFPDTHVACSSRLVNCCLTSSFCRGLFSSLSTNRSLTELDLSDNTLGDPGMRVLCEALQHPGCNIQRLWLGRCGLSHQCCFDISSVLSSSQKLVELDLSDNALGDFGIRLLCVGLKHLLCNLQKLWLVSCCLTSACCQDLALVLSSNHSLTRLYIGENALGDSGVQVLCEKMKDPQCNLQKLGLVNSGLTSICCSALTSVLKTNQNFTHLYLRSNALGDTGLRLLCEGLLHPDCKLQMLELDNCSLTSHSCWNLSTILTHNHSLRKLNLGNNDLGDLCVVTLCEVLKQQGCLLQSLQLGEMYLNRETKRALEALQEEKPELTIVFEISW
Procedure: (§3) J774A.1 cells were plated in a 48-well plate at a density of 1.0×10^6 cells/mL, with 300 µL per well. Subsequently, NLRP3 was activated by LPS+ATP or LPS+Nig. […] ATP was purchased from Sigma, Cat. No.: L2654. Nig was purchased from Shanghai Yuanye Bio-Technology Co., Ltd., Cat. No.: S45490.
Experimental groups: a negative control group, an LPS-alone incubation control group, an LPS+ATP/Nig positive control group, and an example compound experimental group with different concentrations.
After the plated J774A.1 cells adhering to the plate, the culture medium was replaced. For all the groups except the negative control group, the culture medium was completely replaced with cell culture medium containing 1 µg/mL LPS. The negative control group received cell culture medium. Then, all the groups were incubated overnight. 18 h later, the culture medium was replaced again. The culture medium of the example compound experimental group was completely replaced with culture medium containing different concentrations of compounds; while the negative control group, the LPS-alone incubation control group, and the LPS+ATP/Nig positive control group received cell culture medium. 1 h later, the culture mediums of the LPS+ATP/Nig positive control group and the example compound experimental group with different concentrations were completely replaced with cell culture medium containing 5 mM ATP or 10 µM Nig. 1 h later, the cell supernatants were collected for IL-1β detection.
as §2

[5] = biological target: T1, NLRP3; assay: Inhibition curves (IC50) of canonical NLRP3 activation in healthy human whole blood, IL-1β release; assay type: cell-based; conditions: LPS+1 mM ATP canonical activation model
Procedure: 10 mL of human whole blood was collected intravenously aseptically, and plated into a 96-well plate, with 198 µL per well. Then, 2 µL of 100× gradient dilutions of the example compounds at specified concentrations were added, immediately followed by the addition of 10 µL of 21 µg/mL LPS gradient dilution. 3 h later, nigericin with a working concentration of 5 µM or 1 mM ATP was added. After stimulation for 1 h, the whole blood was collected and centrifuged to collect the supernatant. IL-1β in the sample supernatant was detected by ELISA method.
Experimental groups: a negative control group, an LPS-alone incubation control group, an LPS+Nig/ATP positive control group, and a 1 µM example compound experimental group.
10 mL of human whole blood was collected intravenously aseptically. The anticoagulant heparin sodium was added preemptively into a 50 mL centrifuge tube. The collected whole blood was directly plated in a 96-well plate, with 198 µL per well. […] IL-1β in the sample supernatant was detected by ELISA method.
Therefore, the relative change in the amount of IL-1β release may directly reflect NLRP3 inhibitory effect. The inhibitory effect of the compounds varies with different concentrations, and based on this, an inhibition curve can be constructed, and the inhibitory effect of the compounds were assessed by IC50.

[6] = biological target: T1, NLRP3; assay: Inhibition of canonical NLRP3 activation (LPS+Nig) in PMA-differentiated THP-1 cells, IL-1β release, single concentration; conditions: 1 µM compound, FIG. 6 legend
Procedure: THP-1 cells were plated in a 96-well plate at a density of 1.0×10^6 cells/mL, with 100 µL per well. Subsequently, PMA-induced differentiation and cell resting were performed, followed by activation of NLRP3 by LPS+Nig.
Experimental groups: a negative control group, an LPS-alone incubation control group, an LPS+Nig positive control group, and a 1 µM example compound experimental group.
100 ng/mL PMA was added at the same time as THP-1 cells were plated. After incubation for 24 h, the cells were washed three times with PBS, and then the culture medium was changed and the cells were allowed to rest for 24 h. Then the culture medium was completely replaced with medium containing 1 µg/mL LPS. The cells were incubated overnight. On the next day, the wells to which LPS was added completely received culture medium, and then the wells were incubated with specified example compounds for 1 h.
In this experimental example, effectively inhibiting IL-1β release means that the release amount in each group is reduced by 50% or more compared with that of the positive control.

[7] = biological target: T2, NLRP3; assay: Inhibition of canonical NLRP3 activation (LPS+ATP/Nig) in J774A.1 cells, IL-1β release by ELISA, single concentration; assay type: cell-based; parameters: The mouse macrophage cell line J774A.1 was used, and LPS was used as the first signal; host or cells: J774A.1 mouse monocyte-macrophage cell line; conditions: J774.A1, 1 µM compound, LPS + 5 mM ATP or 10 µM Nig, compared with the positive control, read-out: inhibition of IL-1β release
Procedure: as §3, with “using LPS+5 mM ATP (adenosine triphosphate)” for “by LPS+ATP”, “10 µM Nig (nigericin).” for “LPS+Nig.”
Experimental groups: a negative control group, an LPS-alone incubation control group, an LPS+ATP or +Nig positive control group, and an example compound experimental group.
After the plated J774A.1 cells adhering to the plate, the culture medium was replaced. For all the groups except the negative control group, the culture medium was completely replaced with cell culture medium containing 1 µg/mL LPS. The negative control group received cell culture medium. Then, all the groups were incubated overnight. 18 h later, the culture medium was replaced again. The culture medium of the example compound experimental group was completely replaced with cell culture medium containing the compounds; while the negative control group, the LPS-alone incubation control group, and the LPS+ATP/Nig positive control group received cell culture medium. 1 h later, the culture mediums of the LPS+ATP/Nig positive control group and the example compound experimental group were completely replaced with cell culture medium containing 5 mM ATP or 10 µM Nig. 1 h later, the cell supernatants were collected for IL-1β detection.
Therefore, the relative change in the amount of IL-1β release may directly reflect NLRP3 inhibitory effect.

[8] = biological target: T2, NLRP3; assay: Inhibition of APOE peptide-induced NLRP3 activation in J774A.1 cells, IL-1β release; assay type: cell-based; parameters: The mouse macrophage cell line J774A.1 was used, and LPS was used as the first signal; host or cells: J774A.1 mouse monocyte-macrophage cell line; conditions: J774.A1, 10 µM compound, 30 µg/mL APOE peptide
Procedure: J774A.1 cells were plated in a 48-well plate at a density of 1.0×10^6 cells/mL, with 300 µL per well. Subsequently, NLRP3 was activated by APOE peptide. The cell culture medium comprises: DMEM (brand: Gibco, Cat. No.: C12430500) + 10% fetal bovine serum (brand: Gibco, Cat. No.: 10099-141) + 1% sodium pyruvate (brand: Gibco, Cat. No.: 11360-070) + 1% penicillin-streptomycin solution (brand: Solarbio, Cat. No.: P1400). The J774A.1 mouse monocyte-macrophage cell line was purchased from the Cell Resource Center of the Institute of Basic Medical Sciences of Chinese Academy of Medical Sciences (Resource No. 1101MOU-PUMC000222). APOE2/3 peptide 1-151 was obtained through recombinant protein expression and purification by Biocells (Beijing) Biotech Co., Ltd. The procedures were as follows: the sequence (SEQ ID NO: 1) shown below was inserted into the pET-28A plasmid and transformed into BL-21(DE3) expression strain; the expression of target protein was induced with IPTG at a low temperature; after collecting the bacteria via centrifugation, ultrasonic disruption was performed; and after centrifugation, the supernatant was purified by nickel ion affinity chromatography (AKTA pure), and then the product was concentrated by ultrafiltration and identified by BCA+protein electrophoresis. Sequence: [formula]
Experimental groups: a negative control group, an APOE treatment control group, and an example compound experimental group.
After the plated J774A.1 cells adhering to the plate, the culture medium was replaced. The culture medium of the APOE treatment control group was replaced with cell culture medium containing 30 µg/mL APOE peptide, the culture medium of the example compound experimental group was replaced with culture medium containing 30 µg/mL APOE peptide combined with the compounds, and the negative control group received cell culture medium. Then, all the groups were incubated overnight. 18 h later, the cell supernatants were collected for IL-1β detection.
Activation of NLRP3 by APOE peptide will result in release of mature IL-1β, and the release can be inhibited by NLRP3 inhibitors. Therefore, the relative change in the amount of IL-1β release may directly reflect NLRP3 inhibitory effect.
In this experimental example, effective inhibition refers to a reduction of 70% or more in the release amount, compared with the release amount of the positive control minus the negative control.

| Structure (SMILES) | concentration at 120 min [1] | half-life [1] | AUC [1] | IC50 [4] | inhibition at 1 µM [7] | inhibition at 10 µM [8] | also measured |
| --- | --- | --- | --- | --- | --- | --- | --- |
| CC(C)(O)c1coc(S(=O)(=O)NC(=O)Nc2c3c(cc4c2CCC4)CCC3)c1 [MCC950, reference compound] | 0 ng/mL | 1.28 h | 29600 ng·h/mL | – | – | – | half-life [2]: 0.267 h; AUC ([2]; read-out: AUC from 1 to 1440 min): 4380 ng·h/mL |
| Cc1c(S(=O)(=O)NC(=O)Nc2c3c(cc4c2CCC4)CCC3)ccc(O)c1CN(C)C [Example 30, 3-((dimethylamino)methyl)-N-((1,2,3,5,6,7-hexahydro-s-indacen-4-yl)carbamoyl)-4-hydroxy-2-methylbenzenesulfonamide] | – | – | – | 144 nM | – | – | IC50 [3]: 36.7 nM |
| CN(C)C1CCOc2c1cccc2S(=O)(=O)NC(=O)Nc1c2c(cc3c1CCC3)CCC2 (stereo not shown) [Example 32, 4-(dimethylamino)-N-((1,2,3,5,6,7-hexahydro-s-indacen-4-yl)carbamoyl)chromane-8-sulfonamide] | – | – | – | 390 nM | – | – | – |
| CN(C)Cc1c(O)ccc(S(=O)(=O)NC(=O)Nc2c3c(cc4c2CCC4)CCC3)c1F [Example 31, 3-((dimethylamino)methyl)-2-fluoro-N-((1,2,3,5,6,7-hexahydro-s-indacen-4-yl)carbamoyl)-4-hydroxybenzenesulfonamide] | – | – | – | 203 nM | – | – | – |
| CN(C)Cc1cccc(S(=O)(=O)NC(=O)Nc2c3c(cc4c2CCC4)CCC3)c1O [Example 27, 3-((dimethylamino)methyl)-N-((1,2,3,5,6,7-hexahydro-s-indacen-4-yl)carbamoyl)-2-hydroxybenzenesulfonamide] | 96 ng/mL | 2.88 h | 47300 ng·h/mL | 79.6 nM | > 80% | – | IC50 [5]: 55800 nM; reduction in release amount compared with that of the positive control minus the LPS-alone control [6]: ≥ 75% |
| CN(C)Cc1cccc(S(=O)(=O)NC(=O)Nc2c3c(cc4c2CCC4)CCC3)c1Cl [Example 1, 2-chloro-3-((dimethylamino)methyl)-N-((1,2,3,5,6,7-hexahydro-s-indacen-4-yl)carbamoyl)benzenesulfonamide] | – | – | – | 64.6 nM | > 80% | – | – |
| CN(C)Cc1cc(S(=O)(=O)NC(=O)Nc2c3c(cc4c2CCC4)CCC3)c(F)cc1N [Example 22, 4-amino-5-((dimethylamino)methyl)-2-fluoro-N-((1,2,3,5,6,7-hexahydros-indacen-4-yl)carbamoyl)benzenesulfonamide] | – | – | – | 127 nM | > 80% | ≥ 70% | – |
| Cc1c(CN(C)C)cccc1S(=O)(=O)NC(=O)Nc1c2c(cc3c1CCC3)CCC2 [Example 26, 3-((dimethylamino)methyl)-N-((1,2,3,5,6,7-hexahydro-s-indacen-4-yl)carbamoyl)-2-methylbenzenesulfonamide] | – | – | – | 81.6 nM | > 80% | ≥ 70% | – |
| CN(C)Cc1cc(S(=O)(=O)NC(=O)Nc2c3c(cc4c2CCC4)CCC3)cc(F)c1O [Example 17, 3-((dimethylamino)methyl)-5-fluoro-N-((1,2,3,5,6,7-hexahydro-s-indacen-4-yl)carbamoyl)-4-hydroxybenzenesulfonamide] | 184 ng/mL | 3.85 h | 15500 ng·h/mL | 194 nM | > 80% | ≥ 70% | reduction in release amount compared with that of the positive control minus the LPS-alone control [6]: ≥ 75% |
